Measured values as given in patent US20210255195A1, “HIGH PRECISION SPECTRAL FRET ASSAYS” (Regents of the University of Minnesota, priority 2017, published 2021).
Each block holds one compound with its values, some of them ahead of it.

Key:
cytosolic calcium = conditions: literature; cited from earlier work
[1] = target: two-color SERCA (2CS) biosensor (SERCA2a) (UniProt P16615); assay: 2CS FRET biosensor in living HEK293 cells, spectral mode (spectral unmixing plate reader); format: cell-based, human; conditions: for 2CS FRET hit identification: NCC screen, reproducible and dose-dependent FRET decrease
Experimental: HEK293 cells were maintained in phenol-red-free DMEM from Gibco (Waltham, Mass.) supplemented with 2 mM GlutaMAX (Gibco), 10% fetal bovine serum (FBS) from Atlanta Biologicals (Laweranceville, Ga.), and 1 IU/mL penicillin/streptomycin (Gibco) and grown at 37° C. with 5% CO2. Stable clones expressing the FRET biosensors and corresponding donor- and acceptor-labeled control cell lines were established as described previously [3]. Briefly, cells were transfected with the recombinant DNA following established protocols lipofectaimine 3000 from Invitrogen (Carlsbad, Calif.). 48 hours post transfection the cells were placed under G418 (500 μg/mL) from Sigma (St. Louis, Mo.), antibiotic selection, and plated to allow for the growth of single colonies. Clones were isolated 2-3 weeks after transfection and antibiotic selection. […] The cell lines were expanded in T225 flasks from Corning (Corning, N.Y.), harvested by treatment with Tryple (Invitrogen), washed three times in phosphate buffer solution (PBS) with no magnesium or calcium Thermo Fischer (Waltham, Mass.)) and centrifuged at 300 g, filtered using 70 μm cell strainers (Corning), and diluted to 10^6 cells/mL using an automated countess cell counter from Invitrogen. In studies with cyan and yellow fluorescent protein biosensors, transient transfections were performed. In these studies, cells were harvested and prepared as described above, 48 hours after transfection. Cell viability was assessed using trypan blue. […]
The observed fluorescence emission spectrum F(λ) was fitted by least-squares minimization to a linear combination of component spectra
where D is donor, A is acceptor, C is cell autofluorescence, and W is water Raman, and a, b, c, d are the weighting (scalar) coefficients determined from the fit. The fitted spectrum for each well was determined using least squares minimization with Matlab (Mathworks) to solve for the scalar coefficients.
For an intramolecular FRET sensor with a 1:1 ratio of donor D and acceptor A molecules, FRET efficiency (FRET) was determined from (Eq. 10).

[2] = tested on: endoplasmic reticulum calcium (D1ER sensor); assay: D1ER cameleon calcium FRET sensor in HEK293 cells (ER calcium depletion), spectral mode; format: cell-based, human; conditions: for T50 (rate of calcium depletion): saturating drug concentrations, Hill fit of time course
Experimental: Investigation of a CFP and YFP FRET pair was evaluated with the well-known cameleon calcium sensor, in which the calmodulin-binding (M13) domain of myosin light chain kinase (MLCK) and calcium-binding domain of calmodulin are fused together, and located between two fluorescence proteins (eCFP/mCitrine). These calcium sensors have allowed cellular [Ca^2+] to be monitored more directly and reliably than using calcium-sensitive dyes. The endoplasmic reticulum-targeted cameleon sensor (D1ER) was selected because it is known to be sensitive to the SERCA inhibitors thapsigargin, CPA, and BHQ. Instead of detecting direct ligand binding, as in the 2CS studies reported above, the D1ER sensor can be used to monitor changes in ER calcium level. Upon SERCA inhibition, calcium is no longer pumped into the ER, leading to calcium depletion through various mechanisms including IP3-gated receptors and ryanodine receptors. D1ER senses these changes as calcium binding leads to a conformational rearrangement of the biosensors, increasing FRET between CFP and YFP. Therefore, calcium depletion due to SERCA inhibition is detected as a decrease in FRET.
A HEK293 stable clone with constitutive expression of the D1ER cameleon calcium sensor was generated using G418 antibiotic selection. […] Cells were harvested and dispensed into 384-well plates containing the same concentrations of thapsigargin, CPA, and BHQ, as previously evaluated with 2CS (FIG. 9). D1ER FRET was monitored only in spectral mode, because the CFP donor cannot be excited effectively by the 473 nm laser used in lifetime mode. ER calcium was monitored by repeatedly scanning the 384 well plate at three-minute intervals over a 120-minute period. […]
After resuspension and dilution in PBS, the cells were constantly and gently stirred using a magnetic stir bar at room temperature, keeping the cells in suspension and evenly distributed to avoid clumping. […] Concentration-response curves (CRC) of the FRET hits were assessed at multiple time points by repeatedly scanning the 384-well plates. […] The D1ER calcium sensor monitored changes in endoplasmic reticulum [Ca^2+] […] The methods and protocols for the D1ER cells were identical to those for 2CS, with the exception that they were evaluated only in spectral mode, and the 384-well plates containing compound CRCs were scanned every three minutes for two-hours.
SERCA malfunction can result in decreased ATPase activity and/or calcium pumping efficiency. ER calcium content was monitored over time using the endoplasmic-localized cameleon calcium FRET sensor (D1ER). […] Briefly, D1ER FRET changes were monitored over time by repeatedly (every 3 minutes) scanning a 384-well plate containing varying concentrations of the 2CS FRET hits. D1ER cells were assessed immediately after compound incubation. […]

[3] = Water Raman spectrum of compound-only wells (compound aggregation); format: physicochemical; conditions: dose-dependent
From the text: The high sensitivity of spectral mode is shown by the fluorescence signal of the water Raman spectrum.

[4] = target: two-color SERCA (2CS) biosensor (SERCA2a) (UniProt P16615); assay: 2CS FRET biosensor in living HEK293 cells, fluorescence lifetime mode; format: cell-based, human
Experimental: HEK293 cells were maintained in phenol-red-free DMEM from Gibco (Waltham, Mass.) supplemented with 2 mM GlutaMAX (Gibco), 10% fetal bovine serum (FBS) from Atlanta Biologicals (Laweranceville, Ga.), and 1 IU/mL penicillin/streptomycin (Gibco) and grown at 37° C. with 5% CO2. Stable clones expressing the FRET biosensors and corresponding donor- and acceptor-labeled control cell lines were established as described previously. Briefly, cells were transfected with the recombinant DNA following established protocols lipofectaimine 3000 from Invitrogen (Carlsbad, Calif.). 48 hours post transfection the cells were placed under G418 (500 μg/mL) from Sigma (St. Louis, Mo.), antibiotic selection, and plated to allow for the growth of single colonies. Clones were isolated 2-3 weeks after transfection and antibiotic selection. The stability of each clone was assessed by flow cytometry and confocal microscopy (data not shown). The cell lines were expanded in T225 flasks from Corning (Corning, N.Y.), harvested by treatment with Tryple (Invitrogen), washed three times in phosphate buffer solution (PBS) with no magnesium or calcium Thermo Fischer (Waltham, Mass.)) and centrifuged at 300 g, filtered using 70 μm cell strainers (Corning), and diluted to 10^6 cells/mL using an automated countess cell counter from Invitrogen. In studies with cyan and yellow fluorescent protein biosensors, transient transfections were performed. In these studies, cells were harvested and prepared as described above, 48 hours after transfection. Cell viability was assessed using trypan blue.
Cells were dispensed using a Multidrop Combi liquid dispenser from Thermo Fischer (Pittsburgh, Pa.) at a density of 10^6/mL. Compounds were diluted in DMSO and dispensed either using a Mosquito liquid handeler from TTP Labtech (Melbourn, UK) or a Mantis liquid dispenser from Formulatrix (Bedford, Mass.). The known SERCA inhibitors thapsigargin (TG, Sigma), 1,4-dihydroxy-2,5-di-tert-butylbenzene (BHQ) from Tocris (Minneapolis, Minn.), and cyclopiazonic acid (CPA, Tocris) were diluted at 50× concentrations and subsequently serially diluted in 96-well mother plates prior to liquid dispensing. […]
In its spectral unmixing plate reader (SUPR) mode, the instrument provides direct high-throughput detection of the complete fluorescence emission spectrum, (emission vs wavelength), with excitation provided by a 473 nm continuous wave laser. Spectra are recorded using a grating-based fiber optic input spectrograph equipped with linear-array CCD detector (Sony ILX511B). The recorded wavelength range in these experiments spanned the entire visible spectrum, but only the 400-700 nm range was used in the data analysis. In lifetime mode, the full nanosecond-resolved fluorescence emission waveform is acquired following excitation with a 473 nm pulsed microchip laser. […]
Fluorescence decay waveforms for lifetime determination, were detected directly as previously described. […] A full fluorescence decay waveform was detected in response to each laser pulse over a 128 ns time window, using a photomultiplier module from Hamamatsu (Cat #H10720-210), and a proprietary transient digitizer from Fluorescence Innovations (Minneapolis, Minn.). A 488 nm long-pass filter from Semrock (Rochester, N.Y.) and 517/20 bandpass emission filter (lifetime mode), were used, ensuring that only emission from the GFP donor was detected. […]

SERCA2a = SERCA2a (Homo sapiens, UniProt P16615); conditions: binding to SERCA2a, literature; cited from earlier work
SERCA2a, sequence (P16615 1-997 isoform P16615-2, species assumed): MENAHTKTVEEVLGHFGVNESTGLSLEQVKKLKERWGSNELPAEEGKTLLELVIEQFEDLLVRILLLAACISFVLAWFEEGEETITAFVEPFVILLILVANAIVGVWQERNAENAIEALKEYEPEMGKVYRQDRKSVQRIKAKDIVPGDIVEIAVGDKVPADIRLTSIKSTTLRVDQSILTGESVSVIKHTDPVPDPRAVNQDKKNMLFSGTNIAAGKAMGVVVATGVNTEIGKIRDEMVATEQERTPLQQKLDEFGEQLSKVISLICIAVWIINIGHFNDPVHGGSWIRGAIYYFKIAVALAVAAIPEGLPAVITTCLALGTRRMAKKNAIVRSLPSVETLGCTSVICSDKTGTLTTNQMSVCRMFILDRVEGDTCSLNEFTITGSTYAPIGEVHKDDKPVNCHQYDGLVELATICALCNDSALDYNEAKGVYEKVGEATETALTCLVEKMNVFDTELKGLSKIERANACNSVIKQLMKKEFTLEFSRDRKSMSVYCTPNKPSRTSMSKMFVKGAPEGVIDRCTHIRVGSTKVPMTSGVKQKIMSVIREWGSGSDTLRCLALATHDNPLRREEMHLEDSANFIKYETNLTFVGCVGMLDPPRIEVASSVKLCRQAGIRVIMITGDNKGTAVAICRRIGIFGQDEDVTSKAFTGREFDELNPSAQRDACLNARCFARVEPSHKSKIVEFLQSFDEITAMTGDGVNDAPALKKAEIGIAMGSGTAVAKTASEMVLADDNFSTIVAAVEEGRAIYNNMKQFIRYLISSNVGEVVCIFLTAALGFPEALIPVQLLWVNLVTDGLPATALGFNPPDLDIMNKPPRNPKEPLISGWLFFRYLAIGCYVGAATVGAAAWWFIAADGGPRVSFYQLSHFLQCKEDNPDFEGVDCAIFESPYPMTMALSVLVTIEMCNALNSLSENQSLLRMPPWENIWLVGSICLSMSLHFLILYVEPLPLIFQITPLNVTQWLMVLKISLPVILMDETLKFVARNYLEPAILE

SMILES: Oc1cc(Cl)ccc1Oc1ccc(Cl)cc1Cl [triclosan]
cytosolic calcium (cytosolic calcium): increase cytosolic calcium

2CS FRET hit identification [1]: hits
SMILES: c1ccc(-c2ccc(C(c3ccccc3)n3ccnc3)cc2)cc1 (stereo not shown) [bifonazole]

SMILES: CC(C)(C)c1cc(O)c(C(C)(C)C)cc1O [BHQ, 1,4-dihydroxy-2,5-di-tert-butylbenzene]
T50 (rate of calcium depletion) [2]: 17.4 min

2CS FRET hit identification [1]: hits
SMILES: Clc1ccc(COC(Cn2ccnc2)c2ccc(Cl)cc2Cl)c(Cl)c1 (stereo not shown) [miconazole]
Raman scattering, compound aggregation [3]: decreases inelastic light scattering (Raman band) | ER calcium depletion ([2]; over 120 minutes): largest amount of ER calcium depletion

SMILES: C/C=C(/C)C(=O)O[C@H]1C(C)=C2[C@H]([C@@H]1OC(=O)CCCCCCC)[C@@](C)(OC(C)=O)C[C@H](OC(=O)CCC)[C@@]1(O)[C@H]2OC(=O)[C@@]1(C)O [thapsigargin]
reduction in FRET ([1]; 50 nM thapsigargin, spectral mode, average of 32 wells): 8% | reduction in FRET efficiency ([4]; 50 nM thapsigargin, lifetime mode, versus donor-only control): 6% | 2CS structural equilibrium between open and closed states ([4]; global lifetime analysis): shifts this equilibrium substantially toward the open state | 2CS structural equilibrium between open and closed states ([4]; global lifetime analysis, listed as Thapsigargin): greatly increasing the population of the more open and disordered structural state | EC50 ([4]; read-out: EC50 of closed state mole fraction, global lifetime analysis, two-state model): 2.2 nM | increase in the GFP lifetime ([4]; saturating concentration, 50 nM): 200 picosecond | Ki (SERCA2a): 2 nM | EC50 ([2]; Homo sapiens, HEK293, 2 h, ER calcium depletion at 120 min time point, read-out: equilibrium constant of sigmoidal D1ER FRET response): 1.97 nM | T50 (rate of calcium depletion) [2]: 9.5 min

2CS FRET hit identification [1]: hit
SMILES: Clc1ccccc1C(c1ccccc1)(c1ccccc1)n1ccnc1 [clotrimazole]
